One test deals with T1, gelatinase A (MMP-2) (Homo sapiens, UniProt P08253).
T1 sequence (P08253 110-660): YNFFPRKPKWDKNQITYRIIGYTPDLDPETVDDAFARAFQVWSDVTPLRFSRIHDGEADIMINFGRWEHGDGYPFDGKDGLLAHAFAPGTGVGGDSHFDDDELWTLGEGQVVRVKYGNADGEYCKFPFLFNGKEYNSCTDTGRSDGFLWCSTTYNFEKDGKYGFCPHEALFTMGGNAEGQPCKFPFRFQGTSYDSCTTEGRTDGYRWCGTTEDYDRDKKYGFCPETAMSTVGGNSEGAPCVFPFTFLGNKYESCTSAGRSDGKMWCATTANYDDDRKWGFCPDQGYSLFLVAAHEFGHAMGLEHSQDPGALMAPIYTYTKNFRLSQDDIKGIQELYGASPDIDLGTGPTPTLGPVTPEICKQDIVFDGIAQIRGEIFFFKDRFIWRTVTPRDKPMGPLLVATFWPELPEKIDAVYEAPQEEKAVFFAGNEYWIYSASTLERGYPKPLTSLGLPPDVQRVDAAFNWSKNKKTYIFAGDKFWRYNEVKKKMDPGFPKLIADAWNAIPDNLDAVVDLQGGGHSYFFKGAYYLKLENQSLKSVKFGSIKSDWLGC
Description: MMP-2 enzyme inhibition assay (coumarin-labelled peptide substrate). The format is biochemical. The note with it: read-out: IC50 MMP2. How it is done:
Compounds of the invention were tested to assess their activities as inhibitors of MMP-1, MMP-2, MMP-9, MMP-14, MMP-12 and TACE. MMP-9 Assay Protocol […]
Stock solutions were made up as follows: Assay Butter: 100 mM Tris-HCl pH 7.6 containing 100 mM NaCl, 10 mM CaCl2, and 0.05% Brij 35.
Substrate: 0.4 mM McaPLGLDpaAR (from Bachem) (0.437 mg/ml) stock solution in 100% DMSO (stored at −20° C.). Dilute to 8 μM in assay butter. […]
Test Compounds were prepared initially as 10 mM compound solution in 100% DMSO, diluted to 1 mM in 100% DMSO, then serially diluted 3-fold in 100% DMSO across columns 1-10 of a 96-well microtitre plate Assay concentration range, 100 μM (column 1) to 5.1 nM (column 10).
The assay was performed in a total volume of 100 μL per well in 96-well microtitre plates. Activated enzyme (20 μL) was added to the wells followed by 20 μL of assay butter. Appropriate concentrations of test compounds dissolved in 10 μL of DMSO were then added followed by 50 μL of McaPLGLDpaAR (8 μM, prepared by dilution of DMSO stock in assay butter). For each as say ten concentrations of test compound were examined in duplicate. Control wells lack either enzyme or test compound. The reactions were incubated at 37° C. for 2 hours. The fluorescence at 405 nm was measured immediately with an SLT Fluostar fluorometer (SL T Labinstruments GmbH, Grödig, Austria) using 320 nm excitation, without stopping the reaction.
The effect of the test compound was determined from the dose response curve generated by the 10 duplicate concentrations of inhibitor. The IC50 (the concentration of compound required to give a 50% decrease in enzyme activity) was obtained by fitting data to the equation, Y=a+((b−a)/(1+(c/X)^d)). (Y=inhibition achieved for a particular dose; X=the dose in nM; a=minimum y or zero % inhibition; b=maximum y or 100% inhibition; c=is the IC50; d=is the slope). The result was rounded to one significant figure.
Compounds of the invention were tested for inhibitory activity against gelatinase A (MMP-2) in an assay using a coumarin-labelled peptide substrate, (7-methoxycoumarin-4-yl)acetyl-Pro-Leu-Gly-Leu-(3-[2,4-dinitrophenyl]-L-2,3diaminopropionyl)-Ala-Arg-NH2 (Mca PLGLDpaAR) (Knight et al, 1992, above). The protocol for this assay was as described for the MMP-9 assay above.

The next test concerns the target human ADAM17 (TACE) (Homo sapiens, UniProt P78536). Description: TACE enzyme inhibition assay. The format is biochemical. How it is done: Compounds of the invention were tested to assess their activities as inhibitors of MMP-1, MMP-2, MMP-9, MMP-14, MMP-12 and TACE. MMP-9 Assay Protocol
Compounds of the invention can be tested for inhibitory activity against human ADAM17 in an assay using human Mca-(endo-1a-Dap(Dnp)-TNF-alpha(−5 to +6)amide as substrate (FEBS Letters, 2000, 275-279).
Stock solutions are prepared as followed: • Assay Buffer: 20 mM Hepes pH 7.5 (Fluka) containing 0.05% Brij 35 (Fluka) • Substrate: 6.1 mM human Mca-(endo-1a-Dap(Dnp)-TNF-alpha(−5 to +6)amide (Bachem) stock solution in 100% DMSO (stored at −20° C.); diluted to 5 μM in assay buffer. • Enzyme: Recombinant human ADAM17, appropriately diluted in assay buffer (1.5 μg/ml).
Test Compounds are prepared initially as 10 mM compound solution in 100% DMSO, diluted to 1 mM in 100% DMSO, then serially diluted 3-fold in 100% DMSO across a 96-well microtitre plate. Assay concentration range is typically between 100 μM to 0.01 nM. The assay is performed in a total volume of 100 μL per well in 96-well microtitre plates. Appropriate concentrations of test compounds dissolved in 10 μL of DMSO are added to the wells, followed by substrate solution (50 μL, 5 μM prepared by dilution of DMSO stock in assay buffer) and enzyme solution (40 μL). For each as say ten concentrations of test compound are examined in […]. Control wells lack either enzyme or test compound. The reactions are incubated at room temperature for 1.5 hours. The fluorescence at 405 nm is measured immediately with a fluorometer using 355 nm excitation, without stopping the reaction.
The effect of the test compound is determined from the dose response curve generated by the 10 duplicate concentrations of inhibitor. The IC50 (the concentration of compound required to give a 50% decrease in enzyme activity) is obtained by fitting data to the equation, Y=a+((b−a)/(1+(c/X)^d)). (Y=inhibition achieved for a particular dose; X=the dose in nM; a=minimum y or zero % inhibition; b=maximum y or 100% inhibition; c=is the IC50; d=is the slope). The result is rounded to one significant figure.

Results on 18 compounds are retold here after patent US7879876B2, “Sulfonamide derivatives and use thereof for the modulation of metalloproteinases” (Merck Serono SA, priority 2005, dated 2011).

pIC50: −log10 of the molar value.

Sequence of human ADAM17 (TACE) (P78536 215-824): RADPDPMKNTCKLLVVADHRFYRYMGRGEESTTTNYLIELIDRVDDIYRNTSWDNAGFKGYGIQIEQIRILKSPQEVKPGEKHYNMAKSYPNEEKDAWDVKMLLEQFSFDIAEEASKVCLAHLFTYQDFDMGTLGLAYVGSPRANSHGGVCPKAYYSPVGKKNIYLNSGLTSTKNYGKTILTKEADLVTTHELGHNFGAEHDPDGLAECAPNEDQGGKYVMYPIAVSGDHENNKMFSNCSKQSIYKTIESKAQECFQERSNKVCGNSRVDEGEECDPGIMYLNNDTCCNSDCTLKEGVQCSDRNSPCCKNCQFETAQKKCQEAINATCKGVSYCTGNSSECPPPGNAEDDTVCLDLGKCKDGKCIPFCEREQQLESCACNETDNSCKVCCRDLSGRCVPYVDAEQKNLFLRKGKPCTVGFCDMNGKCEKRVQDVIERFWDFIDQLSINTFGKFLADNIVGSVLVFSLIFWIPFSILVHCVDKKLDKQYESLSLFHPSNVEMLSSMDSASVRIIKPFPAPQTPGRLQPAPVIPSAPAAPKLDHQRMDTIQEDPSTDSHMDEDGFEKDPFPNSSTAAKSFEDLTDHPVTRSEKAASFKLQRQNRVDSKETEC

One may read the pIC50 as the negative decadic logarithm of the IC50, by convention in mol/L. With `O=CN(O)C(CS(=O)(=O)N1CCc2ccc(F)cc2C1)c1ccoc1` (stereo not drawn) [Example 52, N-[2-[(7-fluoro-3,4-dihydroisoquinolin-2(1H)-yl)sulfonyl]-1-(3-furyl)ethyl]-N-hydroxyformamide], the results for the pIC50 on gelatinase A (MMP-2) and on human ADAM17 (TACE) were 6.53 and 7.04, respectively.

In the case of `CCC#CCC(C)(C)C(CS(=O)(=O)N1CCc2cc(C(F)(F)F)ccc2C1)N(O)C=O` (stereo not drawn) [Example 30, N-[2,2-dimethyl-1-({[6-(trifluoromethyl)-3,4-dihydro-isoquinolin-2(1H)-yl]sulfonyl}methyl)hept-4-yn-1-yl]-N-hydroxyformamide], the pIC50 was 6.06 at gelatinase A (MMP-2) and below 5.30 at human ADAM17 (TACE).

On to `O=CN(O)C(CS(=O)(=O)N1CCc2ccccc2C1)C1CC1` (stereo not drawn) [Example 4, N-[1-cyclopropyl-2-(3,4-dihydroisoquinolin-2(1H)-ylsulfonyl)ethyl]-N-hydroxyformamide], for which the pIC50 was 6.19 at gelatinase A (MMP-2) and 6.94 on human ADAM17 (TACE).

As to `CC(C)C(CS(=O)(=O)N1CCc2ccc(-c3ccc(F)cc3)cc2C1)N(O)C=O` (stereo not drawn) [Example 50, N-[1-({[7-(4-fluorophenyl)-3,4-dihydroisoquinolin-2(1H)-yl]sulfonyl}methyl)-2-methylpropyl]-N-hydroxyformamide], the results for the pIC50 at gelatinase A (MMP-2) and on human ADAM17 (TACE) were 7.05 and 6.40, respectively.

Turning to `CC1(C)OC[C@H](C(CS(=O)(=O)N2CCc3ccc(C(F)(F)F)cc3C2)N(O)C=O)O1` (stereo partly drawn) [Example 28, N-(1-[(4S)-2,2-dimethyl-1,3-dioxolan-4-yl]-2-{[7-(trifluoro-methyl)-3,4-dihydroisoquinolin-2(1H)-yl]sulfonyl}ethyl)-N-hydroxyformamide], the pIC50 was 7.35 at gelatinase A (MMP-2) and 5.89 at human ADAM17 (TACE).

`O=CN(O)C(CCc1ccccc1)CS(=O)(=O)N1CCc2ccccc2C1` (stereo not drawn) [Example 1, N-{1-[(3,4-dihydroisoquinolin-2(1H)-ylsulfonyl)methyl]-3-phenylpropyl}-N-hydroxyformamide]: the results for the pIC50 on gelatinase A (MMP-2) and on human ADAM17 (TACE) were 7.02 and 7.17, respectively.

Regarding `O=CN(O)C1(CS(=O)(=O)N2CCc3ccc(Cl)cc3C2)CCCC1` [Example 62, N-(1-{[(7-chloro-3,4-dihydroisoquinolin-2(1H)-yl)-sulfonyl]methyl}cyclopentyl)-N-hydroxyformamide], the pIC50 was 6.53 at gelatinase A (MMP-2) and 6.05 on human ADAM17 (TACE).

For the compound `COc1cc2c(cc1OC)CN(S(=O)(=O)CC([C@H]1COC(C)(C)O1)N(O)C=O)CC2` (stereo partly drawn) [Example 14, N-{2-[(6,7-dimethoxy-3,4-dihydroisoquinolin-2(1H)-yl)sulfonyl]-1-[(4S)-2,2-dimethyl-1,3-dioxolan-4-yl]ethyl}-N-hydroxyformamide], the pIC50 at gelatinase A (MMP-2) is below 5.30; against human ADAM17 (TACE), 6.21.

With `O=CN(O)C(CCc1cccnc1)CS(=O)(=O)N1CCc2ccc(Cl)cc2C1` (stereo not drawn) [Example 86, N-(1-{[(7-chloro-3,4-dihydroisoquinolin-2(1H)-yl)sulfonyl]methyl}-3-pyridin-3-ylpropyl)-N-hydroxyformamide], the figures for the pIC50 on gelatinase A (MMP-2) and against human ADAM17 (TACE) were 7.68 and 7.23, respectively.

As to `O=CN(O)C(CS(=O)(=O)N1CCc2cc(C(F)(F)F)ccc2C1)C1CCCC1` (stereo not drawn) [Example 25, N-(1-cyclopentyl-2-{[6-(trifluoromethyl)-3,4-dihydro-isoquinolin-2(1H)-yl]sulfonyl}ethyl)-N-hydroxyformamide], the pIC50 at gelatinase A (MMP-2) is 7.11; at human ADAM17 (TACE) it was 5.92.

For the compound `O=CN(O)C(CCO)CS(=O)(=O)N1CCc2ccc(Cl)cc2C1` (stereo not drawn) [Example 48, N-(1-{[(7-chloro-3,4-dihydroisoquinolin-2(1H)-yl)sulfonyl]-methyl}-3-hydroxypropyl)-N-hydroxyformamide], the negative-log IC50 (pIC50) was 7.11 on gelatinase A (MMP-2) and 6.57 against human ADAM17 (TACE).

`O=CN(O)[C@H](CS(=O)(=O)N1Cc2ccc(F)cc2C1)[C@H]1CCCO1` [Example 29, N-{(1S)-2-[(5-fluoro-1,3-dihydro-2H-isoindol-2-yl)-sulfonyl]-1-[(2R)-tetrahydrofuran-2-yl]ethyl}-N-hydroxyformamide]: the pIC50 is 6.82 on gelatinase A (MMP-2) and 6.56 on human ADAM17 (TACE).

For `CCCCCC(CS(=O)(=O)N1CCc2ccccc2C1)N(O)C=O` (stereo not drawn) [Example 3, N-{1-[(3,4-dihydroisoquinolin-2(1H)-ylsulfonyl)methyl]hexyl}-N-hydroxyformamide], the values for the pIC50 at gelatinase A (MMP-2) and against human ADAM17 (TACE) were 6.17 and 7.55, respectively.

Regarding `O=CN(O)C(COCc1ccccc1)CS(=O)(=O)N1CCc2ccc(Cl)cc2C1` (stereo not drawn) [Example 58, N-(2-(benzyloxy)-1-{[(7-chloro-3,4-dihydroisoquinolin-2(1H)-yl)sulfonyl]methyl}ethyl)-N-hydroxyformamide], the figures for the pIC50 at gelatinase A (MMP-2) and at human ADAM17 (TACE) were 7.70 and 7.25, respectively.

On to `O=CN(O)C(CS(=O)(=O)N1CCc2ccc(Br)cc2C1)C1CCCC1` (stereo not drawn) [Example 64, N-{2-[(7-bromo-3,4-dihydroisoquinolin-2(1H)-yl)sulfonyl]-1-cyclopentylethyl}-N-hydroxyformamide], for which the pIC50 at gelatinase A (MMP-2) is 7.38; against human ADAM17 (TACE), 7.04.

For `CC(C)(C)CC(CS(=O)(=O)N1CCc2cc(C(F)(F)F)ccc2C1)N(O)C=O` (stereo not drawn) [Example 43, N-[3,3-dimethyl-1-({[6-(trifluoromethyl)-3,4-dihydro-isoquinolin-2(1H)-yl]sulfonyl}methyl)butyl]-N-hydroxyformamide], the results for the pIC50 at gelatinase A (MMP-2) and against human ADAM17 (TACE) were 7.68 and below 5.30, respectively.

Turning to `CCCOc1ccc2c(c1)CN(S(=O)(=O)CC(CC(C)(C)C)N(O)C=O)CC2` (stereo not drawn) [Example 40, N-(3,3-dimethyl-1-{[(7-propoxy-3,4-dihydroisoquinolin-2(1H)-yl)sulfonyl]methyl}butyl)-N-hydroxyformamide], the results for the pIC50 at gelatinase A (MMP-2) and at human ADAM17 (TACE) were 7.11 and 5.95, respectively.

Consider `O=CN(O)C(CS(=O)(=O)N1CCc2ccccc2C1)c1cncnc1` (stereo not drawn) [Example 9, N-[2-(3,4-dihydroisoquinolin-2(1H)-ylsulfonyl)-1-pyrimidin-5-ylethyl]-N-hydroxyformamide], for which the pIC50 at gelatinase A (MMP-2) was below 5.30; on human ADAM17 (TACE) it was 6.89.
